The values below come from article PMC4821856, “Novel Anti-Campylobacter Compounds Identified Using High Throughput Screening of a Pre-selected Enriched Small Molecules Library” (Frontiers in Microbiology, 2016).

For data set [1], the system named is C. jejuni 81–176. As to the kind of experiment: Minimum bactericidal concentration (MBC). It is filed as cell-based, Campylobacter jejuni. The following applies: for MBC: Campylobacter jejuni, concentration at which 99.9% of organisms are killed, read-out: C. jejuni MBC (minimum bactericidal concentration). As to the method:
The percentage of C. jejuni growth inhibition was calculated as mentioned previously (De La Fuente et al., [2006]) using the following formula: percentage of inhibition = 100 × (OD negative control–OD test compound)/(OD negative control–OD positive control). Compounds that inhibited Campylobacter growth ≥ 99.0% were selected as primary hits. The culture in wells with ≥ 99% growth inhibition were streaked onto fresh MH agar, as were the sterility, antibiotic and no compound control wells. Bacterial growth was measured on the plate after 48 h at 42°C. Based on the recovery of C. jejuni on MH agar plates, the compound was classified as either “bacteriostatic” or “bactericidal.”
(§1) Minimum inhibitory concentration value not necessarily indicates the killing concentration; therefore, we determined MBC for the top-12 compounds. MBC is defined as the concentration at which 99.9% (below detection limit) of Campylobacter organisms are killed. The MBC for each of these compounds were determined as described previously (Ling et al., [2015]). […] Overall MIC and MBC values were higher for C. coli compared to C. jejuni strain. The MIC and MBC for these 12 compounds for both C. jejuni and C. coli are presented in (Table 1).

For data set [2], the system named is C. coli ATCC 33559. As to the kind of experiment: Minimum inhibitory concentration (MIC). It is filed as cell-based. Conditions: Campylobacter coli, ATCC33559; read-out: C. coli MIC. As to the method:
The dose-dependent effect of 35 compounds against the highly pathogenic C. jejuni 81–176 strain was tested. Compounds were two-fold serially diluted (200 to 12.5 μM). One hundred micro liter of the OD600 0.1 adjusted C. jejuni culture was pipetted in to each well of a 96 well plate, treated with 1 μL of diluted compound and the plate was incubated at 42°C under microaerobic conditions for 24 h. Growth inhibition was assessed as above.
(§2) Initially we re-confirmed the efficacy of the 79 resynthesized compounds against C. jejuni 81–176 and C. coli ATCC 33559.
as §1

Data set [3] has as its system C. coli ATCC 33559. The data set is described as follows: Minimum bactericidal concentration (MBC). It is filed as cell-based, Campylobacter coli. The following applies: for MBC: Campylobacter coli, ATCC33559, concentration at which 99.9% of organisms are killed, read-out: C. coli MBC. As to the method:
as §2, §1

Data set [4] relates to C. jejuni 81–176. As to the kind of experiment: Single step resistance assay at lethal dose (5X MIC) on solid media. It is filed as cell-based, Campylobacter jejuni. The following applies: solid MH agar with 5X MIC, 5 days, 42°C; resistant colonies observed yes/no. As to the method:
(§3) Single step and sequential passage resistance assays were performed as described previously with a few modifications (Ling et al., [2015]; Xu et al., [2015]). The top 12 hit compounds were tested in this experiment. The MIC values for each of these 12 compound as determined in above assay was used for C. jejuni resistance studies using lethal (5X MIC) and sub-lethal (0.5X MIC) concentrations.
Campylobacter jejuni grown in MH medium overnight at 42°C was centrifuged at 4700 × g for 10 min at room temperature. The supernatant was discarded and the bacteria were resuspended in MH broth to an OD600 of 1.0 (~1 × 10^9 CFU). Compounds (5X MIC) were mixed with 5 ml of molten MH agar medium and transferred immediately onto small 35 mm petri-plates, agar in the plate was allowed to solidify in the dark. Ten micro liter of culture was transferred to the small molecule containing plates and spread using sterile beads, plates were incubated at 42°C for 5 days in the dark. Bacteria spread on MH agar with 50 μg/mL kanamycin or MH agar alone, were used as positive and negative controls, respectively. After 5 days of incubation, any colonies that developed were assessed for resistance to the test compounds by determining MIC and the MBC as noted above.
(§4) Our rationale for performing the resistance studies was to determine the ability of C. jejuni strain to develop resistance to these compounds when cultured on solid media with a lethal dose (5X MIC) or in liquid media with a sub-lethal dose (0.5X MIC). The presence of resistant colonies in any of these assays would reduce the attractiveness of the relevant small molecule while an absence of resistant colonies would indicate a likely inability of C. jejuni to develop resistance in general. […] Since C. jejuni is the major cause of human campylobacteriosis (95% of the cases); (Butzler, [2004]) and due to limitation of compounds availability, we only performed resistance studies on C. jejuni 81–176. However, for future commercial application of these antimicrobials, more in-depth characterization of potential resistance by other C. jejuni strains and C. coli is warranted.

Data set [5] concerns C. jejuni 81–176. The data set is described as follows: Sequential passage resistance assay at sub-lethal dose (0.5X MIC), 15 passages. It is filed as cell-based, Campylobacter jejuni. Conditions: liquid MH with 0.5X MIC. As to the method:
as §3
Overnight grown C. jejuni 81–176 culture was washed and suspended in MH broth to an OD600 of 0.05 (~10^7 CFU). Five milli liter of the OD adjusted fresh culture was mixed with 0.5X MIC of the relevant test compound (concentration allowing > 50% growth inhibition). Campylobacter jejuni cultured in 20 μg/mL chloramphenicol, or 50 μg/mL kanamycin, or 2% DMSO, or non-amended MH broth were used as controls. The bacteria were incubated at 42°C with shaking at 200 rpm for 24 h in the dark. Following incubation, cultures were centrifuged at 4700 × g for 10 min at room temperature. The supernatant was discarded; bacteria were resuspended in 5 ml of fresh MH containing 0.5X MIC of the same small molecule. This procedure was repeated 14 times. Following 15 passages, bacterial suspensions were assessed for resistance to the test compound by plating on MH media containing 1X MIC of small molecules.
as §4

Data set [6] is described as follows: Hemolytic activity. It is filed as cell-based. The following applies: sheep red blood cells (10% suspension), 10% sheep RBCs, 37°C. As to the method: The hemolytic activity of the top-12 compounds were determined as previously described (Strom et al., [2003]; Selin et al., [2015]). Briefly, 500 μL of sheep red blood cells (LAMPIRE Biological Laboratories, Pipersville, PA) were washed three times in PBS and resuspended in 5 mL of PBS to prepare a working concentration of 10% RBCs. Two hundred micro liter of the 10% RBCs suspension was incubated with 200 μM concentrations of compounds for 1 h at 37°C in a 96 well plate. After incubation, the plate was centrifuged (4000 rpm, 5 min) and placed on ice for few min. Supernatants from each well was transferred to a fresh 96 well plate and OD of 540 nm was measured. The PBS and 0.1% Triton X-100 were used as negative and positive controls, respectively. A range of 1–10% DMSO was also used as a control. A percent hemolysis was calculated using the following formula:
% Hemolysis=(OD of compound−OD of DMSO/ OD of Triton-X100)×100
Two independent experiments in triplicate were performed and results were expressed as the % average hemolysis.

Values after ≈ are worked out from the molar mass of the structure shown. A value given as a limit tells only on which side of the number the result lay.

For the compound `Cc1c(C(C)NCc2cccc(OC3CCCC3)c2)cnn1-c1ccccc1` (stereo not drawn) [Comp 10], in data set [1], the “MBC relative to MIC for C. jejuni” value is reported as “same as that of their MIC” and the MBC worked out at 50 µM (≈ 18.8 µg/mL). The MIC in data set [2] worked out at 100 µM (≈ 37.6 µg/mL). Moreover, in data set [3], the “MBC relative to MIC for C. coli” value was “same as that of their MIC” and the MBC came out at 100 µM (≈ 37.6 µg/mL). Also, the “Resistance, single step 5X MIC” value in data set [4] was “No”. For the same compound, the “Resistance, passage 0.5X MIC” value in data set [5] is “No”. In addition, the hemolysis at 1 h, 200 µM in data set [6] was determined as 0%.
For the compound `COc1ccc(CNCc2ccc(Cl)s2)cc1OCC(O)CN1CCCC1` (stereo not drawn) [Comp 12], in data set [1], the “MBC relative to MIC for C. jejuni” value is “same as that of their MIC” and the MBC is 100 µM (≈ 41.1 µg/mL). Besides, the minimum inhibitory concentration (MIC) in data set [2] was 50 µM (≈ 20.5 µg/mL). Also, in data set [3], the “MBC relative to MIC for C. coli” value is “two-fold higher” and the MBC turned out to be 100 µM (≈ 41.1 µg/mL). Moreover, the “Resistance, single step 5X MIC” value in data set [4] is given as “No”. In data set [5], the “Resistance, passage 0.5X MIC” value is given as “No”. The same compound came in with a hemolysis at 1 h, 200 µM in data set [6] of 0%.
Consider `CN(Cc1cccc2cnccc12)CC1CCCN(CCc2ccc(F)cc2)C1` (stereo not drawn) [Comp 13], for which, in data set [1], the “MBC relative to MIC for C. jejuni” value is given as “two-fold higher” and the MBC stood at 25 µM (≈ 9.79 µg/mL). In addition, in data set [2], the MIC is 50 µM (≈ 19.6 µg/mL). Moreover, in data set [3], the “MBC relative to MIC for C. coli” value is “same as that of their MIC” and the MBC worked out at 50 µM (≈ 19.6 µg/mL). In addition, the “Resistance, single step 5X MIC” value in data set [4] is “No”. In addition, the “Resistance, passage 0.5X MIC” value in data set [5] is on record as “No”. The hemolysis at 1 h, 200 µM in data set [6] amounted to 0%.
As to `CN(CC(O)COc1ccccc1CNC1(c2ccccc2)CC1)C1CCCCC1` (stereo not drawn) [Comp 17], in data set [1], the “MBC relative to MIC for C. jejuni” value is listed as “two-fold higher” and the MBC came out at 25 µM (≈ 10.2 µg/mL). Further, the minimal inhibitory concentration (MIC) in data set [2] was 50 µM (≈ 20.4 µg/mL). In data set [3], the “MBC relative to MIC for C. coli” value is on record as “same as that of their MIC” and the MBC was determined as 50 µM (≈ 20.4 µg/mL). Besides, the “Resistance, single step 5X MIC” value in data set [4] is “No”. For the same compound, in data set [5], the “Resistance, passage 0.5X MIC” value is reported as “No”. The hemolysis at 1 h, 200 µM in data set [6] worked out at 0%.
Consider `CN(Cc1ccccc1)CC1CCCN(CCc2ccc(F)cc2)C1` (stereo not drawn) [Comp 18], for which, in data set [1], the “MBC relative to MIC for C. jejuni” value is recorded as “same as that of their MIC” and the MBC amounted to 25 µM (≈ 8.51 µg/mL). The MIC in data set [2] worked out at 200 µM (≈ 68.1 µg/mL). Also, in data set [3], the “MBC relative to MIC for C. coli” value was “two-fold higher” and the MBC was over 200 µM. Besides, the “Resistance, single step 5X MIC” value in data set [4] is listed as “No”. In addition, in data set [5], the “Resistance, passage 0.5X MIC” value is given as “No”. In data set [6], the hemolysis at 1 h, 200 µM is 0%.
Consider `CC(=O)Nc1ccc(CN(C)CC2CCCN(CCc3cccc(C(F)(F)F)c3)C2)cc1` (stereo not drawn) [Comp 22], for which, in data set [1], the “MBC relative to MIC for C. jejuni” value is on record as “two-fold higher” and the MBC came to 25 µM (≈ 11.2 µg/mL). Besides, the MIC in data set [2] worked out at 100 µM (≈ 44.8 µg/mL). In addition, in data set [3], the “MBC relative to MIC for C. coli” value is reported as “same as that of their MIC” and the MBC worked out at 100 µM (≈ 44.8 µg/mL). In addition, the “Resistance, single step 5X MIC” value in data set [4] is “No”. Also, in data set [5], the “Resistance, passage 0.5X MIC” value is given as “No”. The hemolysis at 1 h, 200 µM in data set [6] stood at 0%.
